Here are results for 2 molecules from patent US11311523B2, “Pyridinone compound and use thereof” (KYUSHU UNIVERSITY, NATIONAL UNIVERSITY CORPORATION, priority 2015, dated 2022).

The test system of experiment [1] is human fibrosarcoma cell line (HT-1080). Put plainly: cellular invasion inhibition assay (Matrigel chamber). The class given is cell-based. The following applies: FIG. 12(C). The procedure:
(§1) Pharmacological Test 2 (Cellular Invasion Inhibition Assay)
(§2) Three hundred microliters of a suspension of a mouse lung carcinoma cell line (3LL), a human fibrosarcoma cell line (HT-1080), or a human colon cancer cell line (DLD-1) in DMEM (serum free) was placed in the upper chamber with Matrigel (BD Biosciences) equilibrated with DMEM (serum free) for 120 minutes, while 500 μL of DMEM (with 10% FCS) was placed in the lower chamber. Each pyridinone compound or CPYPP dissolved at a predetermined concentration in DMSO was added to the culture media in both the upper and lower chambers. As a control, DMSO alone was added to the media. In all of the experiments, the final DMSO concentration was adjusted to 0.2%.
(§3) After the resulting products were cultured at 37° C. under 5% CO2 for 22 hours, the chambers were removed, and the culture media were removed. […] After staining, the inserts were cut out with a blade to prepare slides, and the cells were counted under an optical microscope.
(§4) The results were evaluated based on percent cell invasion (%: Invasion) and percent inhibition (%: inhibition). The percent cell invasion was obtained by converting the number of invading cells under each condition to percentage, taking the number of invading cells in the control, to which DMSO was added alone, as 100%; and the percent inhibition was obtained by deducting the percent cell invasion from 100.

Experiment [2] deals with mouse lung carcinoma cell line (3LL). The experiment is described as above. The class given is cell-based. The following applies: 3LL cells; for inhibition of cancer cell (3LL) invasion: 22 hours, compared to DMSO; for IC50: Mus musculus, FIG. 12(B), read-out: IC50 value calculated from cancer cell invasion inhibition. The procedure:
as §1, §2, §3, §4

Experiment [3] has as its system HT-1080 cells. Put plainly: inhibition of macropinocytosis (TMR-dextran uptake). The format is cell-based, human. The method, then:
Pharmacological Test 5 (Experiment of Inhibition of Macropinocytosis of Cancer Cells)
Macropinocytosis is a phenomenon in which cells take up various substances together with extracellular fluid while extending cellular membranes. Remodeling of actin cytoskeleton through Rac activity is known to be important.
One hundred and fifty microliters of 4×10^4 3LL cells or HT-1080 cells were seeded on the glass portion of fibronectin-coated glass-bottom culture dishes. After 16-hour culture at 37° C., the medium was changed to DMEM (serum free) and cultured for 24 hours to allow the cells to be serum-starved. Subsequently, the medium was changed to 2 mL of serum-free medium containing DMSO alone or DMSO in which each pyridinone compound was dissolved, followed by pretreatment for 1 hour. The final concentration of DMSO was adjusted to 0.2%.
The cells were added to 180 μL of medium with TMR-dextran (final concentration: 500 μg/mL)-containing DMEM (with 10% FBS) containing DMSO alone or DMSO in which a predetermined concentration of each pyridinone compound was dissolved, as in the case above, followed by incubation at 37° C. for 1 hour. Thereafter, the cells were fixed by 60-minute incubation at room temperature in a 4% paraformaldehyde solution. […] The macropinocytosis activity was measured based on the number of TMR-dextran spots per cell. […]

Experiment [4] has as its system mouse spleen T cells. Put plainly: T lymphocyte migration towards CCL21 (Transwell). The class given is cell-based. Particulars: FIG. 16(A). The source says:
Pharmacological Test. 6 (Evaluation on T Lymphocyte Migration)
Lymphocyte migration plays key roles in immune responses. T cell stimulation by chemokines, such as CCL21, induces actin cytoskeletal remodeling through Rac activation. This drives the cells to migrate towards the source of chemokines.
Therefore, the use of various pyridinone compounds in this assay system enables cell-level verification of DOCK1 selectivity.
Mouse spleen cells at a cell concentration of 1×10^7 cells/mL were precultured at 37° C. for 1 hour in 0.5% BSA-containing RPMI-1640 (Transwell medium) containing DMSO alone or DMSO in which each pyridinone compound was dissolved at a predetermined concentration.
Subsequently, 500 μL of Transwell medium containing 300 ng/mL of CCL21 and DMSO in which each pyridinone compound was dissolved at a predetermined concentration was added to a 24-well plate. […]
After 2-hour incubation at 37° C., the cells that migrated to the lower chamber were collected and stained with PE-labeled anti-Thy1.2 antibody (53-2-1, BD Pharmingen) and APC-labeled anti-B220 antibody (RA-6B-2, eBioscience). The percentage (%) of the migrated cells was calculated by dividing the number of Thy1.2^+ cells (T cells) in the lower chamber by the number of Thy1.2^+ cells (T cells) placed into the Transwell inserts. […]

The structures appear in SMILES notation. “Also recorded” adds a separate entry of the source.

In general, IC50 refers to the midpoint of a concentration-inhibition curve. As for `O=C(Cn1cc(S(=O)(=O)N2CCCC2)ccc1=O)c1ccc(-c2ccc3ccccc3c2)cc1` [TS-28, 1-(2-(4-(naphthalen-2-yl)phenyl)-2-oxoethyl)-5-(pyrrolidin-1-ylsulfonyl)pyridin-2(1H)-one], the “inhibition of HT-1080 cell invasion” value in experiment [1] was “inhibit HT-1080 cell invasion”. In experiment [2], the “inhibition of cancer cell (3LL) invasion” value was “significantly excellent inhibitory effect; also recorded: inhibit cancer cell invasion in a concentration-dependent manner” and the IC50 is 5.6 µM. In addition, the inhibition of macropinocytosis entry in experiment [3] is “inhibit macropinocytosis in 3LL cells and HT-1080 cells in a concentration-dependent manner”. In experiment [4], the “CCL21-stimulated T cell migration” value is listed as “did not affect”.
`O=C(Cn1cc(S(=O)(=O)N2CCCC2)ccc1=O)c1ccc(-c2cccc(C(F)(F)F)c2)cc1` [TS-45, 1-(2-oxo-2-(3′-(trifluoromethyl)-[1,1′-biphenyl]-4-yl)ethyl)-5-(pyrrolidin-1-ylsulfonyl)pyridin-2(1H)-one]: in experiment [1], the “inhibition of HT-1080 cell invasion” value is “inhibit HT-1080 cell invasion”. In experiment [2], the “inhibition of cancer cell (3LL) invasion” value is given as “significantly excellent inhibitory effect; also recorded: inhibit cancer cell invasion in a concentration-dependent manner” and the half-inhibitory concentration (IC50) is 3 µM. Moreover, the inhibition of macropinocytosis entry in experiment [3] is “inhibit macropinocytosis in 3LL cells and HT-1080 cells in a concentration-dependent manner”. The “CCL21-stimulated T cell migration” value in experiment [4] is given as “did not affect”.
